Assay results reported in patent US6737383B1, “Herbicidal oxadiazolidines” (priority 1999, dated 2004).

Legend:
bedstraw = experiment: Test B pre/postemergence bedstraw; format: in vivo, Galium aparine
Method in brief: (§1)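 Herbicidal effect was estimated by eye on a ten-point control scale after plants spent twelve to sixteen days in a greenhouse following soil or foliar treatment. Foliar sprays targeted plants at one to four leaves; all doses were formulated in a non-phytotoxic solvent with surfactant.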

blackgrass = experiment: Test B pre/postemergence blackgrass; format: in vivo, Alopecurus myosuroides
Method in brief: as §1

surinam grass = experiment: Test B pre/postemergence surinam grass; format: in vivo, Brachiaria decumbens
Method in brief: as §1

cocklebur = experiment: Test B pre/postemergence cocklebur; format: in vivo, Xanthium strumarium; details: for Cocklebur plant response rating: scale of 0 to 10 where 0 is no effect and 10 is complete control
Method in brief: as §1

corn = experiment: Test B pre/postemergence corn; format: in vivo, Zea mays; details: for Corn plant response rating: scale of 0 to 10 where 0 is no effect and 10 is complete control
Method in brief: as §1

giant foxtail = experiment: Test B pre/postemergence giant foxtail; format: in vivo, Setaria faberii; details: for Giant foxtail plant response rating: scale of 0 to 10 where 0 is no effect and 10 is complete control
Method in brief: as §1

morningglory = experiment: Test B pre/postemergence morningglory; format: in vivo, Ipomoea hederacea; details: for Morningglory plant response rating: scale of 0 to 10 where 0 is no effect and 10 is complete control
Method in brief: as §1

pigweed = experiment: Test B pre/postemergence pigweed; format: in vivo, Amaranthus retroflexus; details: for Redroot pigweed plant response rating: scale of 0 to 10 where 0 is no effect and 10 is complete control
Method in brief: as §1

rape = experiment: Test B pre/postemergence rape; format: in vivo, Brassica napus; details: for Rape plant response rating: scale of 0 to 10 where 0 is no effect and 10 is complete control
Method in brief: as §1

soybean = experiment: Test B pre/postemergence soybean; format: in vivo, Glycine max; details: for Soybean plant response rating: scale of 0 to 10 where 0 is no effect and 10 is complete control
Method in brief: as §1

sugar beet = experiment: Test B pre/postemergence sugar beet; format: in vivo, Beta vulgaris; details: for Sugarbeets plant response rating: scale of 0 to 10 where 0 is no effect and 10 is complete control
Method in brief: as §1

velvetleaf = experiment: Test B pre/postemergence velvetleaf; format: in vivo, Abutilon theophrasti; details: for Velvetleaf plant response rating: scale of 0 to 10 where 0 is no effect and 10 is complete control
Method in brief: as §1

purple nutsedge = experiment: Test B pre/postemergence purple nutsedge; format: in vivo, Cyperus rotundus; details: for Nutsedge plant response rating: scale of 0 to 10 where 0 is no effect and 10 is complete control
Method in brief: as §1

smallflower flatsedge = experiment: Test B flood test smallflower flatsedge; format: in vivo, Cyperus difformis
Method in brief: (§2)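 Plants were grown to the 2-leaf stage before treatment with test chemical, then held in a greenhouse for twelve to sixteen days. Injury was visually rated against untreated controls on a 0–10 scale, where 0 is no effect and 10 is complete control.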

duck salad = experiment: Test B flood test duck salad; format: in vivo, Heteranthera limosa
Method in brief: as §2

bamyardgrass = experiment: Test B flood test barnyardgrass; format: in vivo, Echinochloa crus-galli
Method in brief: as §2

[1] = Postemergence, Rate 125 g/ha, scale 0 to 10, 0 is no effect, 10 is complete control
[2] = Preemergence, Rate 62 g/ha, scale 0 to 10 (0 no effect, 10 complete control)
[3] = Preemergence, Rate 250 g/ha, scale of 0 to 10 where 0 is no effect and 10 is complete control
[4] = Preemergence, Rate 500 g/ha, scale of 0 to 10 where 0 is no effect and 10 is complete control
[5] = Rate 62 g/ha, Postemergence, scale of 0 to 10 where 0 is no effect and 10 is complete control
[6] = Rate 250 g/ha, Postemergence, scale of 0 to 10 where 0 is no effect and 10 is complete control
[7] = Rate 500 g/ha, Postemergence, scale 0 to 10, 0 no effect, 10 complete control
[8] = Postemergence (flood test), Rate 125 g/ha, scale 0 to 10, 0 is no effect, 10 is complete control
[9] = Rate 62 g/ha, Postemergence (flood test species), scale of 0 to 10 where 0 is no effect and 10 is complete control
[10] = Rate 500 g/ha, listed under Postemergence (flood test species), scale 0 to 10, 0 no effect, 10 complete control

SMILES: CC(C)C(C)n1c(=O)on(C(=O)N(c2ccccc2)C(C)C)c1=O (centres unmarked) [Compound 355]
- Plant response rating, Bedstraw (bedstraw; [1]): 0
- Plant response rating, Bedstraw (bedstraw; [2]): 0
- Bedstraw plant response rating (bedstraw; [3]): 0
- Bedstraw plant response rating (bedstraw; [4]): 9
- Bedstraw plant response rating (bedstraw; [5]): 0
- Plant response rating, Bedstraw (bedstraw; [6]): 0
- Plant response rating, Bedstraw (bedstraw; [7]): 0
- Plant response rating, Blackgrass (blackgrass; [1]): 3
- Plant response rating, Blackgrass (blackgrass; [2]): 2
- Blackgrass plant response rating (0 to 10 scale) (blackgrass; Preemergence, Rate 125 g/ha): 4
- Blackgrass plant response rating (blackgrass; [3]): 5
- Blackgrass plant response rating (blackgrass; [4]): 10
- Blackgrass plant response rating (blackgrass; [5]): 3
- Plant response rating, Blackgrass (blackgrass; [6]): 6
- Plant response rating, Blackgrass (blackgrass; [7]): 6
- Plant response rating, B. signalgrass (surinam grass; [1]): 0
- Plant response rating, B. signalgrass (surinam grass; [2]): 0
- B. signalgrass plant response rating (0 to 10 scale, 0 is no effect, 10 is complete control) (surinam grass; Preemergence, Rate 125 g/ha): 2
- B. signalgrass plant response rating (surinam grass; [3]): 3
- B. signalgrass plant response rating (surinam grass; [4]): 6
- B. signalgrass plant response rating (surinam grass; [5]): 0
- Plant response rating, B. signalgrass (surinam grass; [6]): 0
- Plant response rating, B. signalgrass (surinam grass; [7]): 2
- Plant response rating, Cocklebur (cocklebur; [1]): 0
- Plant response rating, Cocklebur (cocklebur; [2]): 0
- Cocklebur plant response rating (0 to 10 scale) (cocklebur; Preemergence, Rate 125 g/ha): 0
- Cocklebur plant response rating (cocklebur; Preemergence, Rate 250 g/ha): 0
- Cocklebur plant response rating (cocklebur; Rate 62 g/ha, Postemergence): 0
- Plant response rating, Cocklebur (cocklebur; [7]): 4
- Plant response rating, Corn (corn; [1]): 0
- Plant response rating, Corn (corn; [2]): 0
- Corn plant response rating (0 to 10 scale) (corn; Preemergence, Rate 125 g/ha): 0
- Corn plant response rating (corn; Preemergence, Rate 250 g/ha): 3
- Corn plant response rating (corn; Preemergence, Rate 500 g/ha): 4
- Corn plant response rating (corn; Rate 62 g/ha, Postemergence): 0
- Plant response rating, Corn (corn; [7]): 0
- Plant response rating, Giant foxtail (giant foxtail; [1]): 2
- Plant response rating, Giant foxtail (giant foxtail; [2]): 10
- Giant foxtail plant response rating (0 to 10 scale) (giant foxtail; Preemergence, Rate 125 g/ha): 10
- Giant foxtail plant response rating (giant foxtail; Preemergence, Rate 250 g/ha): 10
- Giant foxtail plant response rating (giant foxtail; Preemergence, Rate 500 g/ha): 10
- Giant foxtail plant response rating (giant foxtail; Rate 62 g/ha, Postemergence): 2
- Plant response rating, Giant foxtail (giant foxtail; [7]): 8
- Plant response rating, Morningglory (morningglory; [1]): 5
- Plant response rating, Morningglory (morningglory; [2]): 0
- Morningglory plant response rating (0 to 10 scale) (morningglory; Preemergence, Rate 125 g/ha): 0
- Morningglory plant response rating (morningglory; Preemergence, Rate 250 g/ha): 0
- Morningglory plant response rating (morningglory; Preemergence, Rate 500 g/ha): 2
- Morningglory plant response rating (morningglory; Rate 62 g/ha, Postemergence): 2
- Plant response rating, Morningglory (morningglory; [7]): 8
- Plant response rating, Redroot pigweed (pigweed; [1]): 0
- Redroot pigweed plant response rating (0 to 10 scale) (pigweed; Preemergence, Rate 125 g/ha): 7
- Redroot pigweed plant response rating (pigweed; Preemergence, Rate 250 g/ha): 10
- Redroot pigweed plant response rating (pigweed; Preemergence, Rate 500 g/ha): 10
- Redroot pigweed plant response rating (pigweed; Rate 62 g/ha, Postemergence): 0
- Plant response rating, Redroot pigweed (pigweed; [7]): 3
- Plant response rating, Rape (rape; [1]): 0
- Plant response rating, Rape (rape; [2]): 0
- Rape plant response rating (0 to 10 scale) (rape; Preemergence, Rate 125 g/ha): 0
- Rape plant response rating (rape; Preemergence, Rate 250 g/ha): 0
- Rape plant response rating (rape; Preemergence, Rate 500 g/ha): 5
- Rape plant response rating (rape; Rate 62 g/ha, Postemergence): 0
- Plant response rating, Rape (rape; [7]): 0
- Plant response rating, Soybean (soybean; [1]): 2
- Plant response rating, Soybean (soybean; [2]): 0
- Soybean plant response rating (0 to 10 scale) (soybean; Preemergence, Rate 125 g/ha): 0
- Soybean plant response rating (soybean; Preemergence, Rate 250 g/ha): 0
- Soybean plant response rating (soybean; Preemergence, Rate 500 g/ha): 0
- Soybean plant response rating (soybean; Rate 62 g/ha, Postemergence): 1
- Plant response rating, Soybean (soybean; [7]): 3
- Plant response rating, Sugarbeets (sugar beet; [1]): 0
- Plant response rating, Sugarbeets (sugar beet; [2]): 0
- Sugarbeets plant response rating (0 to 10 scale) (sugar beet; Preemergence, Rate 125 g/ha): 0
- Sugarbeets plant response rating (sugar beet; Preemergence, Rate 250 g/ha): 2
- Sugarbeets plant response rating (sugar beet; Preemergence, Rate 500 g/ha): 3
- Sugarbeets plant response rating (sugar beet; Rate 62 g/ha, Postemergence): 0
- Plant response rating, Sugarbeets (sugar beet; [7]): 0
- Plant response rating, Velvetleaf (velvetleaf; [1]): 0
- Plant response rating, Velvetleaf (velvetleaf; [2]): 0
- Velvetleaf plant response rating (0 to 10 scale) (velvetleaf; Preemergence, Rate 125 g/ha): 2
- Velvetleaf plant response rating (velvetleaf; Preemergence, Rate 250 g/ha): 3
- Velvetleaf plant response rating (velvetleaf; Preemergence, Rate 500 g/ha): 5
- Velvetleaf plant response rating (velvetleaf; Rate 62 g/ha, Postemergence): 0
- Plant response rating, Velvetleaf (velvetleaf; [7]): 2
- Plant response rating, Nutsedge (purple nutsedge; [1]): 0
- Plant response rating, Nutsedge (purple nutsedge; [2]): 0
- Nutsedge plant response rating (0 to 10 scale) (purple nutsedge; Preemergence, Rate 125 g/ha): 0
- Nutsedge plant response rating (purple nutsedge; Preemergence, Rate 250 g/ha): 0
- Nutsedge plant response rating (purple nutsedge; Preemergence, Rate 500 g/ha): 0
- Nutsedge plant response rating (purple nutsedge; Rate 62 g/ha, Postemergence): 0
- Plant response rating, Nutsedge (purple nutsedge; [7]): 0
- Plant response rating, S. Flatsedge (smallflower flatsedge; [8]): 2
- S. Flatsedge plant response rating (smallflower flatsedge; [9]): 0
- Plant response rating, S. Flatsedge (smallflower flatsedge; [10]): 8
- Plant response rating, Ducksalad (duck salad; [8]): 0
- Ducksalad plant response rating (duck salad; [9]): 0
- Plant response rating, Ducksalad (duck salad; [10]): 0
- Plant response rating, Barnyardgrass (bamyardgrass; [8]): 8
- Barnyardgrass plant response rating (bamyardgrass; [9]): 1
- Plant response rating, Barnyardgrass (bamyardgrass; Rate 250 g/ha, Postemergence (flood test species), scale of 0 to 10 where 0 is no effect and 10 is complete control): 8
- Plant response rating, Barnyardgrass (bamyardgrass; [10]): 8
